Experimental data published in patent publication US20060110341A1, “Cosmetic compositions containing Sophora alopecuroides L. extracts” (Unilever Home & Personal Care USA, Division Of Conopco, Inc., priority 2004, published 2006).

Test system: mushroom tyrosinase (Sigma)
Experiment: Tyrosinase inhibition assay
Format: biochemical
Conditions: for IC50: 0.5 mM tyrosine, pH 7.00, tyrosinase 60.5 U/mL, read-out: IC50 tyrosinase inhibition activity: components
Description: Determination of melanin content within each MelanoDerm was performed by absorbance measurement at 475 nm. IC50 was determined by Tyrosinase inhibition assay. […] The reaction rate in the first 6.5 min is calculated based on the absorbance change at 475 nm.

tyrosinase inhibition activity (in words)	IC50	IC50 tyrosinase inhibition activity, in brackets by weight (same value as the μM figure)	Molecule
showing tyrosinase inhibition activity	9 µM	–	C=C(C)C(CC=C(C)C)Cc1c2c(c(O)c3c1OC(c1ccc(O)cc1)C3c1cc(O)cc(O)c1)C(=O)CC(c1ccc(O)cc1O)O2 (stereo not drawn) [Alopecurone A]
–	36.4 µM	(4 micro-q/ml) micro-g/ml	Oc1ccc(O)cc1 [Hydroquinone, reference compound]

Continued, molecule first:

Molecule	tyrosinase inhibition activity (in words)	IC50	IC50 tyrosinase inhibition activity, in brackets by weight (same value as the μM figure)
C=C(C)C(CC=C(C)C)Cc1c2c(c(O)c3c1OC(c1ccc(O)cc1)C3c1cc(O)cc(O)c1)C(=O)CC(c1ccc(O)cc1O)O2 (stereo not drawn) [Alopecurone B]	showing tyrosinase inhibition activity	5 µM	–
C=C(C)[C@H](CC=C(C)C)Cc1c(O)cc(O)c2c1O[C@H](c1ccc(O)cc1O)CC2=O [Sophoraflavone G]	–	14 µM	–
Sophoraflavone I	–	15 µM	–
Sophoraflavone K	–	1 µM	–
